Patent publication US20180153830A1, “SELECTIVE INHIBITORS OF UNDIFFERENTIATED CELLS” (Yissum Research Development Company of the Hebrew …, priority 2012, published 2018)

Tests used:
embryonic stem cells = assay: Annexin V-FITC apoptosis detection (FACS); format: cell-based, human; settings: for apoptosis of undifferentiated cells: 18 hours, 20 μM PluriSIn #1 or 100 nm A939572
Experimental: For quantification of apoptosis, an Annexin V-FITC Apoptosis Detection Kit (eBioscience) was used. […] Dissociated cells were suspended at a final concentration of 2-5×10^5 cells/ml, and treated according to the manufacturer's instructions. Analysis was performed using LSR II FACS with FCS Express software.
The finding of gene expression associated with apoptosis is consistent with previous reports that pluripotent cells are prone to apoptosis [Qin et al., Journal of Biological Chemistry 282:5842-5852 (2007); Momcilovic et al., PloS One 5:e13410 (2010)]. However, pluripotent cells have also been reported to be susceptible to other types of cell death, such as oncosis [Tan et al., Stem Cells 27:1792-1801 (2009)] and autophagy [Alexander et al., PNAS 108:15828-15833 (2011)]. An Annexin V-FITC detection assay and immunoblotting for caspase-3 (a hallmark executioner of apoptosis) were therefore used in order to confirm that the massive hPSC death induced by PluriSIn #1 is indeed apoptosis.

[1] = system: phosphorylated eIF2α in differentiated cells; assay: Phospho-eIF2α immunoblot, differentiated cells; format: cell-based, human; settings: 20 μM PluriSIn #1 or 100 nm A939572
Experimental: For immunoblotting, 10% polyacrylamide gel was used for protein separation and detection. The gel was transferred to a nitrocellulose membrane and antibody hybridization and chemiluminescence were performed according to standard procedures. The primary antibodies in this analysis were rabbit anti-phosphorylated-eIF2a (1:250, Cell Signaling Technology), rabbit anti caspase-3 (1:1,000, Cell Signaling Technology), mouse anti β-catenin (1:10,000, BD Biosciences) and mouse anti-α-tubulin (1:50,000, Sigma-Aldrich). Horseradish peroxidase-conjugated anti-rabbit and anti-mouse secondary antibodies were obtained from Jackson Immunoresearch Laboratories.
To further study the significance of UPR, XBP1 mRNA splicing and eIF2α phosphorylation, hallmarks of UPR, were further examined. Human ES cells and ES-derived differentiated cells were treated with PluriSIn #1 for 12 hours, and expression of the spliced isoform sXBP1 was determined by quantitative PCR and by immunoblotting, as described in the Materials and Methods section. Gene expression change conferred by dithiothreitol ([…]) was used as a positive control.

hPSC-derived teratomas = assay: Teratoma formation from pre-treated hPSCs in NOD-SCID IL2Rγ−/− mice; format: in vivo, mouse; settings: for teratoma formation at the side injected with pre-treated cells: cells pre-treated before injection into mice; for Incidence of teratoma formation, undifferentiated cells only: hPSCs pre-treated 48 h with 20 μM
Experimental: Human embryonic stem cell and induced pluripotent stem cell lines were cultured without feeder cells in CELLSTAR® 6-well tissue culture plates (Greiner Bio-One) pre-coated with Matrigel™, using mTeSR1 defined medium. Cells were treated for 24 hours with either 20 μM PluriSIn #1 (isonicotinic acid N′-phenylhydrazide) in 0.2% DMSO or with 0.2% DMSO, followed by medium replacement and a second treatment for another 24 hours. 48 hours after initial exposure to the tested compound, cells were harvested with trypsin-EDTA and resuspended in a 1:1 mTeSR1:Matrigel™ mixture to a total volume of 200 μl. Cells were then injected subcutaneously to the back of NOD-SCID IL2Rγ−/− mice (Jackson Laboratory). Six weeks after injection mice were sacrificed, the formation of tumors was examined, and the resulting teratomas were photographed, dissected and cryopreserved in O.C.T. compound (Sakura Finetek, Torrance, Calif.).
Alternatively, human embryonic stem cells and induced pluripotent stem cells were spontaneously differentiated in culture for a period of 10 days, by growing them on gelatin-coated culture plates with 85% knockout DMEM medium supplemented with 15% knockout serum replacement, 1 mM glutamine, 0.1 mM β-mercaptoethanol, 1% nonessential amino acids, penicillin (50 U/ml) and streptomycin (50 μg/ml), without basic fibroblast growth factor (bFGF). Retinoic acid was added to the medium at a final concentration of 1 μM. 10 days later, the differentiated cells were harvested and plated at a 1:1 ratio with their undifferentiated parental cells in CELLSTAR® 6-well tissue culture plates (Greiner Bio-One) pre-coated with Matrigel™, with mTeSR1 defined medium. Cells were treated for 24 hours with either 20 μM PluriSIn #1 or 0.2% DMSO, followed by medium replacement and a second treatment for another 24 hours. 48 hours after initial exposure to the compound, cells were harvested with trypsin-EDTA and counted using a Countess automated cell counter (Invitrogen). 1 million viable cells from each condition were resuspended in a 1:1 mTeSR1:Matrigel™ mixture to a total volume of 200 μl. Cells were then injected subcutaneously to the back of NOD-SCID IL2Rγ−/− mice. Each mouse was injected with PluriSIn #1-treated cells into one side of its body and control-treated cells into the other side. Six weeks after injection mice were sacrificed, the formation of tumors was examined, and the resulting teratomas were photographed, dissected and cryopreserved in O.C.T. compound.
To evaluate in vivo tumorigenicity, hPSCs were cultured under the abovementioned conditions in the presence or absence of PluriSIn #1, and the cultures were then injected subcutaneously into immuno-compromised NOD-SCID IL2Rγ−/− mice, which have been previously reported to be especially susceptible to human-derived tumors [Quintana et al., Nature 456:593-598 (2008)]. Mice were sacrificed after 4-6 weeks, and teratoma formation was then assessed.
Similarly, CSES2-SO2 and BJ-iPS28 cell lines were injected into immune-compromised mice (2 mice for each cell line), with control cells and treated cells being injected into the two body sides of the same animal.
The effect of PluriSIns was on teratoma formation was then evaluated in a model designed to simulate a clinical setting. Human ES and iPS cells were spontaneously differentiated in culture for a period of 10 days, and the differentiated cells were then harvested and plated together with undifferentiated cells, in a 1:1 mixture of undifferentiated and differentiated cells, as described in the Materials and Methods section. Following a 48 hour exposure to PluriSIn #1, cells were harvested and injected subcutaneously into NOD-SCID IL2Rγ−/− mice, with each mouse being injected with PluriSin #1-treated cells into one side of its body and with control cells into the other side. The same total number of cells was injected into both sides.

SMILES	apoptosis of undifferentiated cells (embryonic stem cells)	levels of phosphorylated eIF2α, differentiated cells [1]	teratoma formation at the side injected with pre-treated cells (hPSC-derived teratomas)	increase in number of apoptotic cells (embryonic stem cells; 20 μM, 16 hours post-treatment)	Incidence of teratoma formation, 1:1 mixture of undifferentiated and differentiated cells (hPSC-derived teratomas; cells pre-treated 48 h with 20 μM, injected subcutaneously)	Incidence of teratoma formation, undifferentiated cells only (hPSC-derived teratomas; injected subcutaneously)	Incidence of teratoma formation, undifferentiated cells only (hPSC-derived teratomas; injected subcutaneously, listed as PluriSn #1)	mice that developed teratomas, H9 ES cells (hPSC-derived teratomas; treated H9 ES cells injected)
CNC(=O)c1cccc(NC(=O)N2CCC(Oc3ccccc3Cl)CC2)c1 [A939572, 4-(2-chlorophenoxy)-N-(3-(methylcarbamoyl)-phenyl)piperidine-1-carboxamide, reference compound]	enhanced apoptosis	did not increase levels	protective effect against teratoma formation	–	–	–	–	–
O=C(NNc1ccccc1)c1ccncc1 [PluriSIn #1, isonicotinic acid N′-phenylhydrazide]	enhanced apoptosis	did not increase levels	no teratoma is visible	approximately 7 fold	0/4	11/11	0/11	0/3
